From DBAASP
≈ marks a conversion by molar mass, not a printed value.

Experiments:
Assay in all cases: ≥ marks a high value that may be exact or a test limit, other limits are often not marked, values filed in µg/mL are converted to µM
[1] = tested on: Staphylococcus aureus
[2] = tested on: Escherichia coli ATCC 25922
[3] = tested on: Klebsiella pneumoniae
[4] = tested on: Staphylococcus aureus ATCC 25923
[5] = tested on: Candida albicans
[6] = tested on: Escherichia coli
[7] = tested on: Bacillus subtilis
[8] = tested on: Bacillus cereus
[9] = tested on: Staphylococcus aureus ATCC 29213
[10] = tested on: Enterococcus faecalis ATCC 29212
[11] = tested on: Acinetobacter baumannii ATCC 19606
[12] = tested on: Acinetobacter baumannii

SMILES | MIC [1] | MIC [6] | MIC [7] | other results
CC[C@H](C)[C@H](NC(=O)[C@H](CC(N)=O)NC(=O)[C@H](CCCCN)NC(=O)[C@H](CC(C)C)NC(=O)[C@H](Cc1ccccc1)NC(=O)[C@@H](NC(=O)[C@H](CCCCN)NC(=O)[C@H](Cc1c[nH]c2ccccc12)NC(=O)[C@H](CO)NC(=O)[C@H](C)N)C(C)C)C(=O)NCC(=O)N[C@@H](CCCCN)C(=O)N[C@@H](C)C(=O)N[C@@H](C)C(=O)NCC(=O)N[C@@H](CCCCN)C(=O)N[C@@H](C)C(=O)N[C@H](C(=O)N[C@@H](CC(C)C)C(=O)N[C@@H](CC(N)=O)C(=O)N[C@@H](CO)C(=O)N[C@H](C(=O)N[C@H](C(=O)N[C@@H](CC(=O)O)C(=O)N[C@@H](CCSC)C(=O)N[C@H](C(=O)N[C@@H](CC(N)=O)C(=O)N[C@@H](CCC(N)=O)C(N)=O)C(C)C)[C@@H](C)O)C(C)C)C(C)C [ASWKVFLKNIGKAAGKAVLNSVTDMVNQ] | 2.68 µM (≈ 8.01 µg/mL) |  |  | MIC [2]: 2.68 µM (≈ 8.01 µg/mL); MIC [3]: 10.7 µM (≈ 32 µg/mL); MIC [4]: 2.68 µM (≈ 8.01 µg/mL); MIC [5]: 10.7 µM (≈ 32 µg/mL)
CC[C@H](C)[C@H](NC(=O)[C@@H](NC(=O)[C@H](Cc1cnc[nH]1)NC(=O)[C@@H]1CCCN1C(=O)[C@@H](NC(=O)[C@H](CC(C)C)NC(=O)[C@H](CO)NC(=O)[C@H](CC(C)C)NC(=O)[C@@H](N)Cc1ccccc1)[C@@H](C)CC)C(C)C)C(=O)N[C@@H](CO)C(=O)N[C@@H](C)C(=O)N[C@H](C(=O)N1CCC[C@H]1C(=O)N[C@@H](Cc1cnc[nH]1)C(=O)N[C@H](C(=O)N[C@H](C(=O)N[C@@H](CC(N)=O)C(=O)N[C@@H](C)C(=O)N[C@@H](CC(C)C)C(=O)N[C@@H](CO)C(=O)N[C@@H](CC(N)=O)C(=O)N[C@@H](CC(C)C)C(N)=O)C(C)C)C(C)C)[C@@H](C)CC [FLSLIPHVISAIPHVVNALSNL] |  |  |  | MIC [2]: > 218 µM; MIC [3]: > 189 µM; MIC [4]: > 218 µM; MIC [5]: > 218 µM
CC(C)C[C@H](NC(=O)[C@@H](NC(=O)[C@H](CCCN=C(N)N)NC(=O)[C@H](CO)NC(=O)[C@H](CC(C)C)NC(=O)[C@H](C)NC(=O)[C@H](CC(N)=O)NC(=O)CNC(=O)[C@H](CC(C)C)NC(=O)[C@H](C)NC(=O)CNC(=O)[C@H](CC(C)C)NC(=O)[C@@H](N)Cc1ccccc1)C(C)C)C(N)=O [FLGALGNALSRVL] |  |  |  | MIC [9]: 32 µM (≈ 42.5 µg/mL); MIC [2]: > 64 µM; MIC [10]: > 64 µM; MIC [11]: > 64 µM
C[C@H](NC(=O)[C@@H]1CCCN1C(=O)[C@H](CCCN=C(N)N)NC(=O)[C@H](Cc1ccc(O)cc1)NC(=O)CNC(=O)[C@H](CC(N)=O)NC(=O)[C@@H](N)CO)C(=O)N[C@@H](Cc1ccc(O)cc1)C(=O)N[C@@H](CCCN=C(N)N)C(=O)N1CCC[C@H]1C(=O)N[C@@H](C)C(=O)N[C@@H](Cc1ccc(O)cc1)C(=O)N[C@@H](CCCN=C(N)N)C(=O)N1CCC[C@H]1C(=O)N[C@@H](CO)C(=O)N[C@@H](Cc1ccc(O)cc1)C(=O)N[C@@H](CCCN=C(N)N)C(=O)N1CCC[C@H]1C(N)=O [SNGYRPAYRPAYRPSYRP] | > 32 µM | > 32 µM |  | MIC [9]: 32 µM (≈ 69.5 µg/mL); MIC [12]: ≥ 32 µM; MIC [2]: 32 µM (≈ 69.5 µg/mL); MIC [11]: > 32 µM
CC(C)C[C@H](NC(=O)[C@H](CCCCN)NC(=O)[C@H](Cc1ccccc1)NC(=O)[C@@H](NC(=O)[C@H](CCCCN)NC(=O)CNC(=O)[C@H](CC(C)C)NC(=O)[C@@H](N)Cc1ccccc1)C(C)C)C(=O)N[C@@H](C)C(=O)N[C@@H](CO)C(=O)N[C@@H](CCCCN)C(=O)N[C@H](C(=O)N[C@@H](Cc1ccccc1)C(=O)N1CCC[C@H]1C(=O)N[C@@H](CCCCN)C(=O)N[C@H](C(=O)N[C@@H](Cc1ccccc1)C(=O)NCC(=O)N[C@@H](CCCCN)C(=O)N[C@H](C(=O)O)C(C)C)C(C)C)C(C)C [FLGKVFKLASKVFPKVFGKV] | 28.6 µM (≈ 64 µg/mL) | 7.14 µM (≈ 16 µg/mL) |  | MIC [8]: 14.3 µM (≈ 32 µg/mL)
CC[C@H](C)[C@H](N)C(=O)N[C@@H](CC(N)=O)C(=O)N[C@@H](Cc1c[nH]c2ccccc12)C(=O)N[C@@H](CC(C)C)C(=O)N[C@@H](CCCCN)C(=O)N[C@@H](CC(C)C)C(=O)NCC(=O)N[C@@H](CCCCN)C(=O)N[C@@H](CCCCN)C(=O)N[C@H](C(=O)N[C@@H](CC(C)C)C(=O)NCC(=O)N[C@@H](C)C(=O)N[C@H](C(N)=O)[C@@H](C)CC)[C@@H](C)CC [INWLKLGKKILGAI] |  | 67.5 µM (≈ 106 µg/mL) | 25 µM (≈ 39.2 µg/mL) | 

More lines, main results first:

MIC [1] | MIC [6] | MIC [7] | SMILES | other results
 | 25 µM (≈ 44 µg/mL) | 20 µM (≈ 35.2 µg/mL) | CC[C@H](C)[C@H](NC(=O)[C@H](CCCCN)NC(=O)[C@H](CCCCN)NC(=O)[C@H](Cc1c[nH]c2ccccc12)NC(=O)[C@@H](NC(=O)[C@@H](N)CC(N)=O)[C@@H](C)CC)C(=O)N[C@@H](Cc1ccccc1)C(=O)N[C@@H](CCC(=O)O)C(=O)N[C@@H](CCCCN)C(=O)N[C@H](C(=O)N[C@@H](CCCCN)C(=O)N[C@@H](CC(N)=O)C(=O)N[C@@H](CC(C)C)C(=O)N[C@H](C(N)=O)C(C)C)C(C)C [NIWKKIFEKVKNLV] | 
 | > 100 µM | 22.5 µM (≈ 34.4 µg/mL) | CC[C@H](C)[C@H](N)C(=O)N[C@@H](CC(N)=O)C(=O)N[C@@H](Cc1ccccc1)C(=O)N[C@@H](CC(C)C)C(=O)N[C@@H](CCCCN)C(=O)N[C@@H](CC(C)C)C(=O)NCC(=O)N[C@@H](CCCCN)C(=O)N[C@@H](CCCCN)C(=O)N[C@H](C(=O)N[C@@H](CC(C)C)C(=O)NCC(=O)N[C@@H](C)C(=O)N[C@@H](CC(C)C)C(N)=O)[C@@H](C)CC [INFLKLGKKILGAL] | 
 | 75 µM (≈ 135 µg/mL) | ≥ 70 µM | CC[C@H](C)[C@H](N)C(=O)N[C@@H](CC(N)=O)C(=O)N[C@@H](Cc1c[nH]c2ccccc12)C(=O)N[C@@H](CCCCN)C(=O)N[C@@H](CCCCN)C(=O)N[C@H](C(=O)N[C@@H](C)C(=O)N[C@@H](CO)C(=O)N[C@H](C(=O)NCC(=O)N[C@@H](CCCCN)C(=O)N[C@@H](CCC(=O)O)C(=O)N[C@H](C(=O)N[C@@H](CC(C)C)C(=O)N[C@@H](CCCCN)C(=O)N[C@@H](C)C(N)=O)C(C)C)[C@@H](C)CC)[C@@H](C)CC [INWKKIASIGKEVLKA] | 
1.8 µM (≈ 4 µg/mL) | 14.4 µM (≈ 32 µg/mL) |  | CC(C)C[C@H](NC(=O)[C@H](CCCCN)NC(=O)[C@H](Cc1ccccc1)NC(=O)[C@@H](NC(=O)[C@@H](NC(=O)[C@H](CCCCN)NC(=O)[C@H](CC(C)C)NC(=O)[C@@H](N)Cc1ccccc1)C(C)C)C(C)C)C(=O)N[C@@H](C)C(=O)N[C@@H](CO)C(=O)N[C@@H](CCCCN)C(=O)N[C@H](C(=O)N[C@@H](Cc1ccccc1)C(=O)N1CCC[C@H]1C(=O)N[C@@H](C)C(=O)N[C@H](C(=O)N[C@@H](Cc1ccccc1)C(=O)NCC(=O)N[C@@H](CCCCN)C(=O)N[C@H](C(=O)O)C(C)C)C(C)C)C(C)C [FLKVVFKLASKVFPAVFGKV] | MIC [8]: 7.19 µM (≈ 16 µg/mL)
3.79 µM (≈ 8 µg/mL) | > 121 µM |  | CC(C)C[C@H](NC(=O)[C@H](CCCCN)NC(=O)[C@H](Cc1ccccc1)NC(=O)[C@@H](NC(=O)[C@@H](NC(=O)CNC(=O)[C@H](CC(C)C)NC(=O)[C@@H](N)Cc1ccccc1)C(C)C)C(C)C)C(=O)N[C@@H](C)C(=O)N[C@@H](CO)C(=O)N[C@@H](CCCCN)C(=O)N[C@H](C(=O)N[C@@H](Cc1ccccc1)C(=O)NCC(=O)N[C@@H](C)C(=O)N[C@H](C(=O)N[C@@H](Cc1ccccc1)C(=O)NCC(=O)N[C@@H](CCCCN)C(=O)N[C@H](C(=O)O)C(C)C)C(C)C)C(C)C [FLGVVFKLASKVFGAVFGKV] | MIC [8]: 7.57 µM (≈ 16 µg/mL)
100 µM (≈ 268 µg/mL) | 20 µM (≈ 53.6 µg/mL) |  | CC[C@H](C)[C@H](NC(=O)[C@H](CCCCN)NC(=O)[C@H](CS)NC(=O)[C@H](C)NC(=O)[C@@H](NC(=O)[C@H](Cc1ccccc1)NC(=O)CNC(=O)[C@H](CC(C)C)NC(=O)CNC(=O)[C@@H](NC(=O)[C@H](CCCN=C(N)N)NC(=O)CNC(=O)[C@H](CC(C)C)NC(=O)[C@H](CC(N)=O)NC(=O)[C@H](CCCCN)NC(=O)[C@H](CC(C)C)NC(=O)[C@@H](NC(=O)[C@H](CO)NC(=O)[C@H](CC(C)C)NC(=O)[C@H](CCSC)NC(=O)[C@@H](N)CO)C(C)C)C(C)C)C(C)C)C(=O)N[C@@H](CC(N)=O)C(=O)N[C@@H](CCCCN)C(=O)N[C@@H](CCC(N)=O)C(=O)N[C@@H](CS)C(=O)O [SMLSVLKNLGRVGLGFVACKINKQC] | MIC [5]: 100 µM (≈ 268 µg/mL)
 | > 100 µM | ≥ 100 µM | CC[C@H](C)[C@H](N)C(=O)N[C@@H](CC(N)=O)C(=O)N[C@@H](Cc1c[nH]c2ccccc12)C(=O)N[C@@H](CO)C(=O)N[C@@H](CO)C(=O)N[C@H](C(=O)N[C@@H](Cc1ccccc1)C(=O)N[C@@H](CCC(=O)O)C(=O)N[C@@H](CO)C(=O)N[C@H](C(=O)N[C@@H](CO)C(=O)N[C@@H](CC(N)=O)C(=O)N[C@@H](CC(C)C)C(=O)N[C@H](C(N)=O)C(C)C)C(C)C)[C@@H](C)CC [INWSSIFESVSNLV] | 
53.3 µM (≈ 94.1 µg/mL) | > 53.4 µM | ≥ 40 µM | CC[C@H](C)[C@H](NC(=O)[C@H](CC(C)C)NC(=O)[C@H](C)NC(=O)[C@@H]1CCCN1C(=O)[C@H](CC(C)C)NC(=O)CN)C(=O)N[C@@H](CO)C(=O)N[C@@H](Cc1c[nH]c2ccccc12)C(=O)N[C@@H](CO)C(=O)N[C@@H](CCCCN)C(=O)N[C@@H](CCCN=C(N)N)C(=O)N[C@@H](CCCCN)C(=O)N[C@@H](CCCN=C(N)N)C(=O)N[C@@H](CCC(N)=O)C(=O)N[C@@H](CCC(N)=O)C(N)=O [GLPALISWSKRKRQQ] | 
